In PubChem BioAssay (NCI):
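These data come from cells grown in 96-well plates and exposed to compound for 48 hours at five concentrations. The concentration for full growth arrest is given as TGI.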

Experiments:
Experiment in all cases: NCI-60 cell line screen, 48 h
MOLT-4 leukemia = system: MOLT-4 leukemia
NCI-H23 lung = system: NCI-H23 lung
HOP-62 NSCLC = system: HOP-62 NSCLC
U251 CNS = system: U251 CNS
HOP-92 NSCLC = system: HOP-92 NSCLC
OVCAR-8 ovarian = system: OVCAR-8 ovarian
UACC-257 melanoma = system: UACC-257 melanoma
SW-620 colon = system: SW-620 colon
OVCAR-3 ovarian = system: OVCAR-3 ovarian
NCI-H522 lung = system: NCI-H522 lung
ACHN renal = system: ACHN renal
MALME-3M melanoma = system: MALME-3M melanoma
A498 renal = system: A498 renal
OVCAR-4 ovarian = system: OVCAR-4 ovarian
IGROV1 ovarian = system: IGROV1 ovarian
DU-145 prostate = system: DU-145 prostate
LOX IMVI melanoma = system: LOX IMVI melanoma
SK-OV-3 ovarian = system: SK-OV-3 ovarian
NCI-H226 lung = system: NCI-H226 lung
PC-3 prostate = system: PC-3 prostate
MDA-N = system: MDA-N
SK-MEL-28 melanoma = system: SK-MEL-28 melanoma
K-562 leukemia = system: K-562 leukemia
HL-60(TB) leukemia = system: HL-60(TB) leukemia
HCT-15 colon = system: HCT-15 colon
HS 578T breast = system: HS 578T breast
SNB-75 CNS = system: SNB-75 CNS
HT29 colon = system: HT29 colon
NCI/ADR-RES ovarian = system: NCI/ADR-RES ovarian
CAKI-1 renal = system: CAKI-1 renal
M14 melanoma = system: M14 melanoma
MDA-MB-231 breast = system: MDA-MB-231 breast
RXF 393 renal = system: RXF 393 renal
SF-268 CNS = system: SF-268 CNS
UACC-62 melanoma = system: UACC-62 melanoma
SN12C renal = system: SN12C renal
BT-549 breast = system: BT-549 breast
SR leukemia = system: SR leukemia
MDA-MB-435 = system: MDA-MB-435
T-47D breast = system: T-47D breast
EKVX NSCLC = system: EKVX NSCLC
CCRF-CEM leukemia = system: CCRF-CEM leukemia
SK-MEL-2 melanoma = system: SK-MEL-2 melanoma
SF-295 CNS = system: SF-295 CNS
OVCAR-5 ovarian = system: OVCAR-5 ovarian
MCF7 breast = system: MCF7 breast
RPMI-8226 leukemia = system: RPMI-8226 leukemia
HCT-116 colon = system: HCT-116 colon
UO-31 renal = system: UO-31 renal
SK-MEL-5 melanoma = system: SK-MEL-5 melanoma
COLO 205 colon = system: COLO 205 colon
A549 NSCLC = system: A549 NSCLC
KM12 colon = system: KM12 colon
786-0 renal = system: 786-0 renal
SNB-19 CNS = system: SNB-19 CNS
TK-10 renal = system: TK-10 renal
HCC-2998 colon = system: HCC-2998 colon
NCI-H460 lung = system: NCI-H460 lung

Work on CN(C)C1C(=O)C(C(=O)NCN2CCCC2)=C(O)C2(O)C(=O)C3=C(O)c4c(O)cccc4C(C)(O)C3CC12 (centres undefined) yielded a TGI (MOLT-4 leukemia) greater than 100 µM, a TGI (NCI-H23 lung) greater than 100 µM and a TGI (HOP-62 NSCLC) greater than 100 µM. For the same molecule, the TGI (U251 CNS) was greater than 100 µM, the TGI (HOP-92 NSCLC) was greater than 100 µM and the TGI (OVCAR-8 ovarian) was greater than 100 µM. It also gave a TGI (UACC-257 melanoma) greater than 100 µM, a TGI (SW-620 colon) greater than 100 µM and a TGI (OVCAR-3 ovarian) greater than 100 µM. For the same molecule, the TGI (NCI-H522 lung) was greater than 100 µM, the TGI (ACHN renal) was greater than 100 µM and the TGI (MALME-3M melanoma) was 48.7 µM. For the same molecule, the TGI (A498 renal) was greater than 100 µM, the TGI (OVCAR-4 ovarian) was greater than 100 µM and the TGI (IGROV1 ovarian) was greater than 100 µM. It also gave a TGI (DU-145 prostate) greater than 100 µM, a TGI (LOX IMVI melanoma) greater than 100 µM and a TGI (SK-OV-3 ovarian) greater than 100 µM. The TGI (NCI-H226 lung) was greater than 100 µM, the TGI (PC-3 prostate) was greater than 100 µM and the TGI (MDA-N) was greater than 100 µM. The TGI (SK-MEL-28 melanoma) was greater than 100 µM, the TGI (K-562 leukemia) was greater than 100 µM and the TGI (HL-60(TB) leukemia) was greater than 100 µM. It also gave a TGI (HCT-15 colon) greater than 100 µM, a TGI (HS 578T breast) greater than 100 µM and a TGI (SNB-75 CNS) greater than 100 µM. It also gave a TGI (HT29 colon) greater than 100 µM, a TGI (NCI/ADR-RES ovarian) greater than 100 µM and a TGI (CAKI-1 renal) greater than 100 µM. The TGI (M14 melanoma) was greater than 100 µM, the TGI (MDA-MB-231 breast) was greater than 100 µM and the TGI (RXF 393 renal) was greater than 100 µM. The TGI (SF-268 CNS) was greater than 100 µM, the TGI (UACC-62 melanoma) was greater than 100 µM and the TGI (SN12C renal) was greater than 100 µM. The TGI (BT-549 breast) was greater than 100 µM, the TGI (SR leukemia) was greater than 100 µM and the TGI (MDA-MB-435) was greater than 100 µM. For the same molecule, the TGI (T-47D breast) was greater than 100 µM, the TGI (EKVX NSCLC) was greater than 100 µM and the TGI (CCRF-CEM leukemia) was greater than 100 µM. For the same molecule, the TGI (SK-MEL-2 melanoma) was greater than 100 µM, the TGI (SF-295 CNS) was greater than 100 µM and the TGI (OVCAR-5 ovarian) was greater than 100 µM. The TGI (MCF7 breast) was greater than 100 µM, the TGI (RPMI-8226 leukemia) was greater than 100 µM and the TGI (HCT-116 colon) was greater than 100 µM. It also gave a TGI (UO-31 renal) greater than 100 µM, a TGI (SK-MEL-5 melanoma) greater than 100 µM and a TGI (COLO 205 colon) greater than 100 µM. For the same molecule, the TGI (A549 NSCLC) was greater than 100 µM, the TGI (KM12 colon) was greater than 100 µM and the TGI (786-0 renal) was greater than 100 µM. For the same molecule, the TGI (SNB-19 CNS) was greater than 100 µM and the TGI (TK-10 renal) was greater than 100 µM.
With CC/C=C/C[C@H](O[Si](C)(C)C(C)(C)C)[C@H]1C[C@H]2O[C@H]([C@@H](O)C#C[Si](C)(C)C)C[C@H]2O1 the TGI (MOLT-4 leukemia) was greater than 48.6 µM, the TGI (NCI-H23 lung) was 24.7 µM and the TGI (HOP-62 NSCLC) was 30.4 µM. The TGI (U251 CNS) was 30.2 µM, the TGI (HOP-92 NSCLC) was 22.4 µM and the TGI (OVCAR-8 ovarian) was 27.9 µM. For the same molecule, the TGI (UACC-257 melanoma) was 23.2 µM, the TGI (SW-620 colon) was 37.7 µM and the TGI (OVCAR-3 ovarian) was 30.2 µM. The TGI (NCI-H522 lung) was 11.9 µM, the TGI (ACHN renal) was 29 µM and the TGI (MALME-3M melanoma) was 24.8 µM. For the same molecule, the TGI (A498 renal) was 32.8 µM, the TGI (OVCAR-4 ovarian) was 23.1 µM and the TGI (IGROV1 ovarian) was 27.5 µM. For the same molecule, the TGI (DU-145 prostate) was 28.3 µM, the TGI (LOX IMVI melanoma) was 22.1 µM and the TGI (SK-OV-3 ovarian) was 28.9 µM. It also gave a TGI (NCI-H226 lung) of 20.6 µM, a TGI (PC-3 prostate) of 26.2 µM and a TGI (MDA-N) of 24.8 µM. For the same molecule, the TGI (SK-MEL-28 melanoma) was 29.7 µM, the TGI (K-562 leukemia) was greater than 44.3 µM and the TGI (HL-60(TB) leukemia) was greater than 100 µM. The TGI (HCT-15 colon) was 26.6 µM, the TGI (HS 578T breast) was 32.4 µM and the TGI (SNB-75 CNS) was 31 µM. For the same molecule, the TGI (HT29 colon) was 24.4 µM, the TGI (NCI/ADR-RES ovarian) was 26.3 µM and the TGI (CAKI-1 renal) was 24.2 µM. For the same molecule, the TGI (M14 melanoma) was 24.7 µM, the TGI (MDA-MB-231 breast) was 30.2 µM and the TGI (RXF 393 renal) was 20.4 µM. The TGI (SF-268 CNS) was 27.4 µM, the TGI (UACC-62 melanoma) was 34.1 µM and the TGI (SN12C renal) was 17.2 µM. It also gave a TGI (BT-549 breast) of 33.4 µM, a TGI (SR leukemia) of 7.66 µM and a TGI (MDA-MB-435) of 25.3 µM. It also gave a TGI (T-47D breast) of 23.2 µM, a TGI (EKVX NSCLC) of 25.9 µM and a TGI (CCRF-CEM leukemia) greater than 100 µM. The TGI (SK-MEL-2 melanoma) was 31.3 µM, the TGI (SF-295 CNS) was 27.5 µM and the TGI (OVCAR-5 ovarian) was 27.3 µM. For the same molecule, the TGI (MCF7 breast) was 20.9 µM, the TGI (RPMI-8226 leukemia) was 37.6 µM and the TGI (HCT-116 colon) was 24.5 µM. For the same molecule, the TGI (UO-31 renal) was 27.6 µM, the TGI (SK-MEL-5 melanoma) was 20 µM and the TGI (HCC-2998 colon) was 35.1 µM. The TGI (COLO 205 colon) was 28.2 µM, the TGI (A549 NSCLC) was 21.8 µM and the TGI (KM12 colon) was 39.2 µM. It also gave a TGI (786-0 renal) of 28 µM, a TGI (NCI-H460 lung) of 36 µM and a TGI (SNB-19 CNS) of 26.9 µM. The TGI (TK-10 renal) was 30 µM.
